Where two headings read alike, the source gives them in different places.
Legend:
[1] = test system: Caco-2 cells; assay: Caco-2 permeability; assay type: in vitro ADME
Method: Caco-2 Permeability Studies. The Caco-2 plate was removed from the incubator and washed twice with pre-warmed HBSS (10 mM HEPES, pH 7.4), and then incubated at 37° C. for 30 min. The stock solutions of controls compounds were diluted in DMSO to get 1 mM solutions and then diluted with HBSS (10 mM HEPES, pH 7.4) to get 5 μM working solutions. The stock solutions of the test compounds were diluted in DMSO to get 1 mM solutions and then diluted with HBSS (10 mM HEPES, pH 7.4) to get 5 μM working solutions. The final concentration of DMSO in the incubation system was 0.5%. To determine the rate of drug transport in the apical to basolateral direction, 75 μL of 5 μM working solutions of test compounds was added to the Transwell insert (apical compartment) and the wells in the receiver plate (basolateral compartment) were filled with 235 μL of HBSS (10 mM HEPES, pH 7.4). To determine the rate of drug transport in the basolateral to apical direction, 235 μL of 5 μM working solutions of test compounds were to the receiver plate wells (basolateral compartment) and then the Transwell inserts (apical compartment) were filled with 75 μL of HBSS (10 mM HEPES, pH 7.4). Time 0 samples were prepared by transferring 50 μL of 5 μM working solution to wells of the 96-deepwell plate, followed by the addition of 200 μL cold methanol containing appropriate internal standards (IS). The plates were incubated at 37° C. for 2 h. […] An aliquot of 100 μL of the supernatant was mixed with an appropriate volume of ultra-pure water before LC-MS/MS analysis. To determine the Lucifer Yellow leakage after 2 h transport period, stock solution of Lucifer yellow was prepared in ultra-pure water and diluted with HBSS (10 mM HEPES, pH 7.4) to reach the final concentration of 100 μM and then 100 μL of the Lucifer yellow solution was added to each Transwell insert (apical compartment), followed by filling the wells in the receiver plate (basolateral compartment) with 300 μL of HBSS (10 mM HEPES, pH 7.4). The plates were incubated at 37° C. for 30 minutes. Samples (80 μL) were removed directly from the apical and basolateral wells (using the basolateral access holes) and transferred to wells of new 96 wells plates.

[2] = Maximum tolerated dose determination in NOD SCID mice; assay type: in vivo; conditions: QD x 5; for Body Weight %: 7 days after first dose
Method: Maximum Tolerated Dose Determinations. […]. […] Experiments involving 100 mg/kg doses of all three drugs were terminated after one day because of toxicity, while the study involving 50 mg/kg dose of G105 was also halted after one day (FIG. 12). Similarly, the investigation with a 40 mg/kg dose of G105 was discontinued after two days (FIG. 13).

[3] = test system: γ-H2AX; assay: Western blot of MOLT-4 tumor xenograft tissue; assay type: in vivo, human
Source text: In several cases, the levels of c-Myc were more greatly depressed at the lower dose level. For examples, see the 9-hour data for G104 in Tables 17 and 18 and the 6-hour data in Table 19. […] Overall, there are many unexpected and unexplained aspects of the data in Tables 17-19, which are highly variable and also highly dependent on cell type. In particular, drug-induced increases in c-Myc expression relative to control and the larger changes in c-Myc expression seen at lower vs. higher doses are counterintuitive and unexplained.

[4] = mouse, 6 h, 1 μM
Method: (§2) Analysis of Plasma Protein Binding and Stability in Human and Mouse Blood Plasma by Equilibrium Dialysis. Frozen plasma (stored at −80° C.) was thawed immediately in a 37° C. water bath. The working solutions of test compound and control compound were prepared in DMSO at 200 μM concentration, and the working solutions were spiked into plasma. The final concentration of compound was 1 μM. The final concentration of DMSO was 0.5%. Ketoconazole was used as positive control in the assay. The dialysis membranes were soaked in ultrapure water for 60 min to separate strips, then in 20% ethanol for 20 min, and then finally in dialysis buffer for 20 min. For equilibrium dialysis, each cell contained plasma sample (150 μL) and was dialyzed against an equal volume of dialysis buffer (PBS). The assay was performed in duplicate. The dialysis plate was sealed and incubated at 37° C. with 5% CO2 at 100 rpm for 6 h. At the end of incubation, samples (50 μL) from both buffer and plasma chambers were transferred to wells of a 96-well plate. Plasma (50 μL) was added to each buffer sample and an equal volume of PBS was added to the collected plasma sample. Cold acetonitrile (400 μL) containing internal standards (IS, 100 nM alprazolam, 200 nM labetalol, 200 nM imipramine and 2 μM ketoprofen) was added to precipitate protein and release compounds. Samples were vortexed for 2 min and centrifuged for 30 min at 3,220 g. An aliquot (100 μL) of the supernatant was diluted with ultra-pure H2O (100 μL), and the mixture was used for LC-MS/MS analysis. For stability determination in plasma, a spiked plasma sample (50 μL) was transferred to a new plate and incubated at 37° C., 5% CO2 for 0 and 6 h. At designated time points, PBS (50 μL) was added and mixed thoroughly, followed by the addition of room temperature quench solution [400 μL of acetonitrile containing internal standards (IS, 100 nM alprazolam, 200 nM labetalol, 200 nM imipramine and 2 μM ketoprofen)] to precipitate protein and release compounds. Samples were vortexed for 2 min and centrifuged for 30 min at 3,220 g. An aliquot (400 μL) of the supernatant was diluted by ultra-pure H2O, and the mixture was used for LC-MS/MS analysis. The concentrations of test compounds in the buffer and plasma chambers were determined from peak area ratios.

[5] = test system: DU-145 (Prostate); assay: NCI-60 cytotoxicity assay; assay type: cell-based, human; conditions: Prostate DU-145, 48 h, read-out: Cytotoxicity GI50
How it was run: (§1)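 Sulforhodamine B staining read-out: percentage growth is plotted against the common logarithm of concentration, from which GI50 is derived. Treatment lasts 48 h at five doses between 100 μM and 10 nM.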

[6] = test system: MCF7 (Breast); assay: NCI-60 cytotoxicity assay; assay type: cell-based, human; conditions: Breast MCF7, 48 h, read-out: Cytotoxicity GI50
How it was run: as §1

[7] = test system: SN12C (Renal); assay: NCI-60 cytotoxicity assay; assay type: cell-based, human; conditions: Renal SN12C, 48 h, read-out: Cytotoxicity GI50
How it was run: as §1

[8] = test system: OVCAR-3 (Ovarian); assay: NCI-60 cytotoxicity assay; assay type: cell-based, human; conditions: Ovarian OVCAR-3, 48 h, read-out: Cytotoxicity GI50
How it was run: as §1

[9] = test system: HCT-116 (Colon); assay: NCI-60 cytotoxicity assay; assay type: cell-based, human; conditions: Colon HCT-116, 48 h, read-out: Cytotoxicity GI50
How it was run: as §1

[10] = test system: UACC-62 (Melanoma); assay: NCI-60 cytotoxicity assay; assay type: cell-based, human; conditions: Melanoma UACC-62, 48 h, read-out: Cytotoxicity GI50
How it was run: as §1

[11] = test system: HOP-62 (Lung); assay: NCI-60 cytotoxicity assay; assay type: cell-based, human; conditions: Lung HOP-62, 48 h, read-out: Cytotoxicity GI50
How it was run: as §1

[12] = test system: γ-H2AX; assay: Western blot of RS4;11 tumor xenograft tissue; assay type: in vivo, human
[13] = in vivo; conditions: male, CD1, mouse, iv, 20 mg/kg
Method: Brain Penetration Studies. […] The concentrations were determined by LC-MS/MS with direct measurement of the plasma samples. The brain tissue was homogenized with water using a 3:1 ratio of water (mL) to brain (g) before determination of the concentrations (ng/mL) in the brain homogenates, and the homogenate values then were multiplied by a factor of 4 to obtain the brain concentrations (ng/g).

[14] = test system: NCI-60 cancer cell lines; assay: NCI-60 cytotoxicity assay, MGM; assay type: cell-based; conditions: Homo sapiens; read-out: MGM (average GI50 across NCI-60 panel)
How it was run: as §1

[15] = test system: SF-539 (CNS); assay: NCI-60 cytotoxicity assay; assay type: cell-based; conditions: Homo sapiens; CNS SF-539, 48 h; read-out: Cytotoxicity GI50
How it was run: as §1

[16] = human, 6 h, 1 μM
Method: as §2

[17] = assay type: in vivo
[18] = test system: c-Myc; assay: Western blot of MOLT-4 tumor xenograft tissue; assay type: in vivo, human

COc1cc2c3c(n(CCCNCCO)c(=O)c2cc1OC)-c1nc2c(cc1C3=O)OCO2 [G105, 6-(3-((2-Hydroxyethyl)amino)propyl)-2,3-dimethoxy-5H-[1,3]dioxolo[4″,5″:5′,6′]pyrido[3′,2′:4,5]cyclopenta[1,2-c]isoquinoline-5,12(6H)-dione]
Efflux Ratio ([1]; Caco-2): 7.60 | Recovery (%)AP-BL ([1]; Caco-2): 75.07% | Recovery (%)BL-AP ([1]; Caco-2): 95.77% | Papp (A→B) ([1]; Caco-2, 5 μM, 2 h): 2.39 10^−6, cm/s | Papp (B→A) ([1]; Caco-2, 5 μM, 2 h): 18.16 10^−6, cm/s | Body Weight % ([2]; 5 mg/Kg IV): 97.2% | Body Weight % ([2]; 10 mg/Kg IV): 95.5% | Body Weight % ([2]; 15 mg/Kg IV): 79.2% | Body Weight % ([2]; 20 mg/Kg IV): 82% | Body Weight % ([2]; 30 mg/Kg IV): 74.7% | Maximum tolerated dose (MTD) ([2]; NOD SCID mice, IV, body weight % ≥80%): 20 mg/kg | γ-H2AX/GAPDH, % Relative to Vehicle ([3]; MOLT-4, IV 10 mg/kg, 3 h): 60.98 ± 8.93% | γ-H2AX/GAPDH, % Relative to Vehicle ([3]; MOLT-4, IV 10 mg/kg, 9 h): 172.03 ± 47.41% | γ-H2AX/GAPDH, % Relative to Vehicle ([3]; MOLT-4, IV 20 mg/kg, 3 h): 56.62 ± 11.87% | γ-H2AX/GAPDH, % Relative to Vehicle ([3]; MOLT-4, IV 20 mg/kg, 9 h): 109.66 ± 28.34% | % Recovery [4]: 90.43% | % Bound ([4]; plasma): 79.41% | GI50 ([5]; Homo sapiens): 2.71 µM | GI50 [5]: 2.71 µM | GI50 [6]: 0.26 µM | GI50 ([6]; Homo sapiens): 0.26 µM | GI50 ([7]; Homo sapiens): 3.94 µM | GI50 [7]: 3.94 µM | GI50 ([8]; Homo sapiens): 5.65 µM | GI50 [8]: 5.65 µM | GI50 [9]: 1.25 µM | GI50 ([9]; Homo sapiens): 1.25 µM | GI50 ([10]; Homo sapiens): 2.38 µM | GI50 [10]: 2.38 µM | GI50 ([11]; Homo sapiens): 0.42 µM | GI50 [11]: 0.42 µM | γ-H2AX/GAPDH, % Relative to Vehicle ([12]; RS4;11, IV 10 mg/kg, 3 h): 67.00 ± 2.90% | γ-H2AX/GAPDH, % Relative to Vehicle ([12]; RS4;11, IV 10 mg/kg, 9 h): 166.37 ± 40.45% | γ-H2AX/GAPDH, % Relative to Vehicle ([12]; RS4;11, IV 20 mg/kg, 3 h): 219.29 ± 82.49% | γ-H2AX/GAPDH, % Relative to Vehicle ([12]; RS4;11, IV 20 mg/kg, 9 h): 540.94 ± 97.90% | Vd [13]: 29 L/kg | GI50 [14]: 2.95 µM | GI50 [15]: 1 µM | % Recovery [16]: 99.38% | % Bound ([16]; plasma): 80.88% | Mean Tumor/Plasma Ratio ([17]; MOLT-4, 3 h, IV 10 mg/kg): 50 ± 13.4 | Mean Tumor/Plasma Ratio ([17]; MOLT-4, 9 h, IV 10 mg/kg): 357 ± 180 | Mean Tumor/Plasma Ratio ([17]; MOLT-4, 9 h, IV 20 mg/kg): 326 ± 102 | c-Myc/GAPDH, % Relative to Vehicle ([18]; MOLT-4, IV 10 mg/kg, 3 h): 110.56 ± 4.90% | c-Myc/GAPDH, % Relative to Vehicle ([18]; MOLT-4, IV 10 mg/kg, 9 h): 84.53 ± 6.26% | c-Myc/GAPDH, % Relative to Vehicle ([18]; MOLT-4, IV 20 mg/kg, 3 h): 96.74 ± 9.71% | c-Myc/GAPDH, % Relative to Vehicle ([18]; MOLT-4, IV 20 mg/kg, 9 h): 83.89 ± 10.06%
